Test results reported in patent US10189854B2, “Substituted pyrimidine compounds” (Grünenthal GmbH, priority 2014, dated 2019).

Molecular target: T1, human PDE4B1 (Homo sapiens (Human), UniProt Q07343)
Test: TR-FRET assay using the LANCE Ultra cAMP kit to determine the activity of hPDE4B1
Format: biochemical
Conditions: IC50 inhibition of PDE4B, mean
Excerpt: TR-FRET Assay Using the LANCE® Ultra cAMP Kit to Determine the Activity of hPDE4B1
The effects of the compounds on the activity of the human PDE4B1 was quantified by measuring the production of 5′AMP from cAMP using a human recombinant enzyme expressed in Sf9 cells and the LANCE® Ultra cAMP kit, a TR-FRET detection method from PerkinElmer. The human PDE4B1 enzyme was purchased from SignalChem Lifesciences (Catalog# P92-31BG, Lot# H296-2).
The test compound, reference compound or water (control) was mixed with the enzyme (0.96 U) in a reaction buffer containing 50 mM Tris-HCl, 50 mM MgCl2 and 5 mM DTT (pH 8.5). Thereafter, the reaction was initiated by addition of 500 nM cAMP (substrate) and the mixture was incubated for 30 minutes at room temperature. For control basal measurements, the enzyme was omitted from the reaction mixture. After 30 minutes, the reaction was stopped and diluted by a factor of 100 with the reaction buffer supplemented with 500 μM IBMX. The fluorescence donor (europium chelate-labeled cAMP) and the fluorescence acceptor (anti-cAMP antibody labeled with the ULight™ dye) were then added together with 500 μM IBMX to a 10 μl aliquot. After 60 minutes, the fluorescence transfer corresponding to the amount of residual cAMP was measured at λex=337 nm, λem=620 nm and λem=665 nm using a microplate reader (PHERAstar, BMG). The enzyme activity was determined by dividing the signal measured at 665 nm by that measured at 620 nm (ratio) multiplied by 10000. The results were expressed as percent inhibition of the control enzyme activity. IC50 values (IC50=concentration causing a half-maximal inhibition of control specific activity) were derived from dose response measurements with ten different concentrations (n=3; N=1-3).
Several compounds according to the invention are tested with above mentioned assay.

T1 sequence (Q07343 whole entry): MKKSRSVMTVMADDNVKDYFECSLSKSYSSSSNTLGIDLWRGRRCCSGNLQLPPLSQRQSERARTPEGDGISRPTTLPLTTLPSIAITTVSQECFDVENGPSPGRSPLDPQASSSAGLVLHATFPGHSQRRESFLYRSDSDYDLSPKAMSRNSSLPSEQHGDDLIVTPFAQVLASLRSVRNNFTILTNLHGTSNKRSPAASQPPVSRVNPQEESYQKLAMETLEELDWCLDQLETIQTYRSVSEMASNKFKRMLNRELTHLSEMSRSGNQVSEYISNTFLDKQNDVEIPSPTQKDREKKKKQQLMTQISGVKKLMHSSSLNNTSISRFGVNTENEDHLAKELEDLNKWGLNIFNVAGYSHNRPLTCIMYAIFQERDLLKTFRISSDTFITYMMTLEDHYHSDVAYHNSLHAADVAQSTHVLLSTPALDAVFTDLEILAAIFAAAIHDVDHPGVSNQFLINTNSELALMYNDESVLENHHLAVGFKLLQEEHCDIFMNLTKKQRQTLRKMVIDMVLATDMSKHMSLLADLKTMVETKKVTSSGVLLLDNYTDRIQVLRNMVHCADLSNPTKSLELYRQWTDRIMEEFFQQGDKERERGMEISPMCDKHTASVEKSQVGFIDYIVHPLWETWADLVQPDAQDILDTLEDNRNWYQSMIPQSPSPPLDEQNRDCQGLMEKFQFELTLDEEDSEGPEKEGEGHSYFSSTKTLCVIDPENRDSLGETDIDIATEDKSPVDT

IC50 | Molecule
< 0.1 µM | CN(CCO)C(=O)c1ccc2c(c1)N(c1ncc(-c3ccc4c(c3)OCO4)cn1)CC21CC1 [Compound 219, 1-[5-(1,3-Benzodioxol-5-yl)-pyrimidin-2-yl]-N-(2-hydroxy-ethyl)-N-methyl-spiro[1,2-dihydro-indole-3,1′-cyclopropane]-6-carboxylic acid amide]
0.1 to 1 µM | O=C(c1ccc2c(c1)N(c1ncc(-c3ccccc3F)cn1)CC21CC1)N1C[C@H]2C[C@@H]1CN2 [Compound 220, [(1R,4R)-2,5-Diazabicyclo[2.2.1]heptan-2-yl]-[1-[5-(2-fluorophenyl)-pyrimidin-2-yl]spiro[1,2-dihydro-indole-3,1′-cyclopropane]-6-yl]-methanone]
< 0.1 µM | O=C(c1ccc2c(c1)N(c1ncc(-c3ccccc3F)cn1)CC21CC1)N1C[C@@H]2C[C@H]1CN2 [Compound 221, [(1S,4S)-2,5-Diazabicyclo[2.2.1]heptan-2-yl]-[1-[5-(2-fluorophenyl)-pyrimidin-2-yl]-spiro[1,2-dihydro-indole-3,1′-cyclopropane]-6-yl]-methanone]
< 0.1 µM | Cc1ccnc(-c2cnc(N3CC4(CC4)c4ccc(C(=O)N5CCNC(=O)C5)cc43)nc2)c1 [Compound 222, 4-[1-[5-(4-Methyl-pyridin-2-yl)-pyrimidin-2-yl]-spiro[1,2-dihydro-indole-3,1′-cyclopropane]-6-carbonyl]-piperazin-2-one]
< 0.1 µM | O=C(c1ccc2c(c1)N(c1ncc(-c3cccc(F)c3)cn1)CC21CC1)N1CC2CC1CN2 (stereo not shown) [Compound 223, (2,5-Diazabicyclo[2.2.1]heptan-2-l)-[1-[5-(3-fluorophenyl)-pyrimidin-2-yl]-spiro[1,2-dihydro-indole-3,1′-cyclopropane]-6-yl]-methanone]
< 0.1 µM | COc1ccnc(-c2cnc(N3CC4(CC4)c4ccc(C(=O)N(C)CCO)cc43)nc2)c1 [Compound 224, N-(2-hydroxyethyl)-1′-(5-(4-methoxypyridin-2-yl)pyrimidin-2-yl)-N-methylspiro[cyclopropane-1,3′-indoline]-6′-carboxamide]
< 0.1 µM | CN(CCO)C(=O)c1ccc2c(c1)N(c1ncc(-c3cccc(F)c3F)cn1)CC21CC1 [Compound 225, 1-[5-(2,3-Difluoro-phenyl)-pyrimidin-2-yl]-N-(2-hydroxy-ethyl)-N-methyl-spiro[1,2-dihydro-indole-3,1′-cyclopropane]-6-carboxylic acid amide]
0.1 to 1 µM | O=C(c1ccc2c(c1)N(c1ncc(-c3ccccc3F)cn1)CC21CC1)N1CCC2(CCCN2)C1 (stereo not shown) [Compound 226, (1,-Diazaspiro[4.4]nonan-7-yl)-[1-[5-(2-fluorophenyl)-pyrimidin-2-yl]-spiro[1,2-dihydro-indole-3,1′-cyclopropane]-6-yl]-methanone]
< 0.1 µM | Cc1ccc(F)c(-c2cnc(N3CC4(CC4)c4ccc(C(=O)N(C)CCO)cc43)nc2)c1 [Compound 227, 1-[5-(2-Fluoro-5-methyl-phenyl)-pyrimidin-2-yl]-N-(2-hydroxy-ethyl)-N-methyl-spiro[1,2-dihydro-indole-3,1′-cyclopropane]-6-carboxylic acid amide]
< 0.1 µM | CN(CCO)C(=O)c1ccc2c(c1)N(c1ncc(-c3cc(N)ccc3F)cn1)CC21CC1 [Compound 228, 1-[5-(5-Amino-2-fluoro-phenyl)-pyrimidin-2-yl]-N-(2-hydroxy-ethyl)-N-methyl-spiro[1,2-dihydro-indole-3,1′-cyclopropane]-6-carboxylic acid amide]
< 0.1 µM | CN(CCO)C(=O)c1ccc2c(c1)N(c1ncc(-c3ccccn3)cn1)CC21CC1 [Compound 229, N-(2-Hydroxy-ethyl)-N-methyl-1-(5-pyridin-2-yl-pyrimidin-2-yl)-spiro[1,2-dihydro-indole-3,1′-cyclopropane]-6-carboxylic acid amide]
< 0.1 µM | CN(CCO)C(=O)c1ccc2c(c1)N(c1ncc(-c3cccc(F)n3)cn1)CC21CC1 [Compound 230, 1-[5-(6-Fluoro-pyridin-2-yl)-pyrimidin-2-yl]-N-(2-hydroxy-ethyl)-N-methyl-spiro[1,2-dihydro-indole-3,1′-cyclopropane]-6-carboxylic acid amide]
< 0.1 µM | CN(CCO)C(=O)c1ccc2c(c1)N(c1ncc(-c3ccnc(F)c3)cn1)CC21CC1 [Compound 231, 1-[5-(2-Fluoro-pyridin-4-yl)-pyrimidin-2-yl]-N-(2-hydroxy-ethyl)-N-methyl-spiro[1,2-dihydro-indole-3,1′-cyclopropane]-6-carboxylic acid amide]
< 0.1 µM | CN(CCO)C(=O)c1ccc2c(c1)N(c1ncc(-c3ccc(F)cn3)cn1)CC21CC1 [Compound 232, 1-[5-(5-Fluoro-pyridin-2-yl)-pyrimidin-2-yl]-N-(2-hydroxy-ethyl)-N-methyl-spiro[1,2-dihydro-indole-3,1′-cyclopropane]-6-carboxylic acid amide]
< 0.1 µM | CN(CCO)C(=O)c1ccc2c(c1)N(c1ncc(-c3cc(F)ccn3)cn1)CC21CC1 [Compound 233, 1-[5-(4-Fluoro-pyridin-2-yl)-pyrimidin-2-yl]-N-(2-hydroxy-ethyl)-N-methyl-spiro[1,2-dihydro-indole-3,1′-cyclopropane]-6-carboxylic acid amide]
< 0.1 µM | Cc1cccc(-c2cnc(N3CC4(CC4)c4ccc(C(=O)N(C)CCO)cc43)nc2)n1 [Compound 234, N-(4-Hydroxy-ethyl)-N-methyl-1-[5-(6-methyl-pyridin-2-yl)-pyrimidin-2-yl]-spiro[1,2-dihydro-indole-3,1′-cyclopropane]-6-carboxylic acid amide]
0.1 to 1 µM | COCCN1CCN(C(=O)c2ccc3c(c2)N(c2ncc(-c4ccccc4F)cn2)CC32CC2)CC1 [Compound 235, [1-[5-(2-Fluorophenyl)-pyrimidin-2-yl]-spiro[1,2-dihydro-indole-3,1′-cylcopropane]-6-yl]-[4-(2-methoxy-ethyl)-piperazin-1-yl]-methanone]

Molecular target: T1, human PDE4B1
Test: cAMP HTRF assay to determine the activity of hPDE4B1
Format: biochemical
Conditions: IC50 inhibition of PDE4B; human recombinant PDE4B1, cAMP HTRF assay
Summary of the method: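 Recombinant human PDE4B1 expressed in Sf9 cells (4.8 U) was incubated with 40 nM cAMP for 30 min at room temperature in Tris buffer, pH 7.8, with MgCl2, DTT and Tween 20. HTRF detection of remaining cAMP followed, with 1 mM IBMX stop, read 60 min later as the 665/620 nm ratio. Results are % inhibition versus control.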

IC50 | Molecule
0.1 to 1 µM | [1-[5-(1-Cyclopropyl-phenyl)-pyrimidin-2-yl]-spiro[1,2-dihydro-indole-3,1′-cyclopropane]-6-yl]-piperazin-1-yl-methanone [Compound 70]
< 0.1 µM | [1-[5-(1-Fluorophenyl)-pyrimidin-2-yl]-spiro[1,2-dihydro-indole-3,1′-cyclopropane]-6-yl]-pyrrolidin-1-yl-methanone [Compound 3]
< 0.1 µM | [1-[5-(2-Methyl-pyrimidin-4-yl)-pyrimidin-2-yl]-spiro[1,2-dihydro-indole-3,1′-cyclopropane]-6-yl]-morpholin-4-yl-methanone [Compound 185]
< 0.1 µM | [1-[5-(4-Amino-pyridin-2-yl)-pyrimidin-2-yl]-spiro[1,2-dihydro-indole-3,1′-cyclopropane]-6-yl]-morpholin-4-yl-methanone [Compound 181]
< 0.1 µM | [1-[5-(4-Fluoro-pyridin-2-yl)-pyrimidin-2-yl]-spiro[1,2-dihydro-indole-3,1′-cyclopropane]-6-yl]-morpholin-4-yl-methanone [Compound 187]
< 0.1 µM | [1-[5-(6-Chloro-pyrimidin-4-yl)-pyrimidin-2-yl]-spiro[1,2-dihydro-indole-3,1′-cyclopropane]-6-yl]-morpholin-4-yl-methanone [Compound 206]
< 0.1 µM | [1-[5-(6-Fluoro-pyrimidin-4-yl)-pyrimidin-2-yl]-spiro[1,2-dihydro-indole-3,1′-cyclopropane]-6-yl]-morpholin-4-yl-methanone [Compound 205]
< 0.1 µM | [1-[5-(6-Methoxy-pyridazin-3-yl)-pyrimidin-2-yl]-spiro[1,2-dihydro-indole-3,1′-cyclopropane]-6-yl]-morpholin-4-yl-methanone [Compound 201]
< 0.1 µM | [1-[5-(6-Methyl-pyridazin-3-yl)-pyrimidin-2-yl]-spiro[1,2-dihydro-indole-3,1′-cyclopropane]-6-yl]-morpholin-4-yl-methanone [Compound 196]
< 0.1 µM | [1-[5-(6-Methyl-pyridin-2-yl)-pyrimidin-2-yl]-spiro[1,2-dihydro-indole-3,1′-cyclopropane]-6-yl]-morpholin-4-yl-methanone [Compound 186]

Molecule | IC50
[1-[5-(2-Fluorophenyl)-pyrimidin-2-yl]-spiro[1,2-dihydro-pyrrolo[2,3-b]pyridine-3,1′-cyclobutane]-6-yl]-morpholin-4-yl-methanone [Compound 171] | 0.1 to 1 µM
